Source: ChEMBL document CHEMBL5303573, “Mapping human microbiome drug metabolism by gut bacteria and their genes” (Nature, 2019)

Legend:
[1] = The drug is tested on Bacteroides uniformis strain: ATCC8492 for biotransformation. The drug concentrations were measured before and after a 12-h incubation by liquid-chromatography-coupled mass spectrometry (LC–MS); conditions: 2 µM
[2] = The drug is tested on Bacteroides finegoldii strain: DSM17565 for biotransformation. The drug concentrations were measured before and after a 12-h incubation by liquid-chromatography-coupled mass spectrometry (LC–MS); conditions: 2 µM
[3] = The drug is tested on Parabacteroides merdae strain: ATCC43184 for biotransformation. The drug concentrations were measured before and after a 12-h incubation by liquid-chromatography-coupled mass spectrometry (LC–MS); conditions: 2 µM
[4] = bacteroides thetaiotaomicron, 12 h, 2 µM
Description: The drug is tested on Bacteroides thetaiotaomicron strain: 7330 for biotransformation. The drug concentrations were measured before and after a 12-h incubation by liquid-chromatography-coupled mass spectrometry (LC–MS)

[5] = limosilactobacillus reuteri cf48-3a, 12 h, 2 µM
Description: The drug is tested on Lactobacillus reuteri CF48-3A strain: BEI HM-102 for biotransformation. The drug concentrations were measured before and after a 12-h incubation by liquid-chromatography-coupled mass spectrometry (LC–MS)

[6] = The drug is tested on Enterococcus faecalis strain: V583 for biotransformation. The drug concentrations were measured before and after a 12-h incubation by liquid-chromatography-coupled mass spectrometry (LC–MS); conditions: 2 µM
[7] = The drug is tested on Coprococcus comes strain: ATCC27758 for biotransformation. The drug concentrations were measured before and after a 12-h incubation by liquid-chromatography-coupled mass spectrometry (LC–MS); type: ADME; parameters: dose 2 uM, timepoint 0 vs 12 hours; conditions: 2 µM
[8] = The drug is tested on Bacteroides ovatus strain: ATCC8483 for biotransformation. The drug concentrations were measured before and after a 12-h incubation by liquid-chromatography-coupled mass spectrometry (LC–MS); conditions: 2 µM
[9] = The drug is tested on Clostridium asparagiforme strain: DSM15981 for biotransformation. The drug concentrations were measured before and after a 12-h incubation by liquid-chromatography-coupled mass spectrometry (LC–MS); type: ADME; parameters: dose 2 uM, timepoint 0 vs 12 hours; conditions: enterocloster asparagiformis, 2 µM
[10] = The drug is tested on Enterobacter cancerogenus strain: ATCC35316 for biotransformation. The drug concentrations were measured before and after a 12-h incubation by liquid-chromatography-coupled mass spectrometry (LC–MS); conditions: 2 µM
[11] = The drug is tested on Bacteroides coprophilus strain: DSM18228 for biotransformation. The drug concentrations were measured before and after a 12-h incubation by liquid-chromatography-coupled mass spectrometry (LC–MS); conditions: 2 µM
[12] = The drug is tested on Dorea formicigenerans strain: ATCC27755 for biotransformation. The drug concentrations were measured before and after a 12-h incubation by liquid-chromatography-coupled mass spectrometry (LC–MS); conditions: 2 µM
[13] = The drug is tested on Ruminococcus torques strain: ATCC27756 for biotransformation. The drug concentrations were measured before and after a 12-h incubation by liquid-chromatography-coupled mass spectrometry (LC–MS); type: ADME; parameters: dose 2 uM, timepoint 0 vs 12 hours; conditions: 2 µM
[14] = The drug is tested on Alistipes indistinctus strain: DSM22520 for biotransformation. The drug concentrations were measured before and after a 12-h incubation by liquid-chromatography-coupled mass spectrometry (LC–MS); conditions: 2 µM
[15] = The drug is tested on Anaerotruncus colihominis strain: DSM17241 for biotransformation. The drug concentrations were measured before and after a 12-h incubation by liquid-chromatography-coupled mass spectrometry (LC–MS); conditions: 2 µM
[16] = The drug is tested on Odoribacter splanchnicus strain: fecal isolate for biotransformation. The drug concentrations were measured before and after a 12-h incubation by liquid-chromatography-coupled mass spectrometry (LC–MS); conditions: 2 µM
[17] = The drug is tested on Clostridium sporogenes strain: ATCC15579 for biotransformation. The drug concentrations were measured before and after a 12-h incubation by liquid-chromatography-coupled mass spectrometry (LC–MS); conditions: 2 µM
[18] = The drug is tested on Bacteroides caccae strain: ATCC43185 for biotransformation. The drug concentrations were measured before and after a 12-h incubation by liquid-chromatography-coupled mass spectrometry (LC–MS); conditions: 2 µM
[19] = The drug is tested on Bifidobacterium ruminantium strain: fecal isolate for biotransformation. The drug concentrations were measured before and after a 12-h incubation by liquid-chromatography-coupled mass spectrometry (LC–MS); conditions: 2 µM
[20] = The drug is tested on Collinsella aerofaciens strain: ATCC25986 for biotransformation. The drug concentrations were measured before and after a 12-h incubation by liquid-chromatography-coupled mass spectrometry (LC–MS); conditions: 2 µM

Row | Structure (SMILES) | Bacterial Biotransformation [7] | Bacterial Biotransformation [13] | Bacterial Biotransformation [20] | Bacterial Biotransformation [1] | Bacterial Biotransformation [2] | Bacterial Biotransformation [3] | Bacterial Biotransformation [4] | Bacterial Biotransformation [5] | Bacterial Biotransformation [6] | Bacterial Biotransformation [8] | Bacterial Biotransformation [9] | Bacterial Biotransformation [10] | Bacterial Biotransformation [11] | Bacterial Biotransformation [12] | Bacterial Biotransformation [14] | Bacterial Biotransformation [15] | Bacterial Biotransformation [16] | Bacterial Biotransformation [17] | Bacterial Biotransformation [18] | Bacterial Biotransformation [19]
1 | CCC(COC(=O)c1cc(OC)c(OC)c(OC)c1)(c1ccccc1)N(C)C.O=C(O)/C=C\C(=O)O (stereo not given) | Compound metabolized | Compound metabolized | – | Compound metabolized | Compound metabolized | Compound metabolized | Compound metabolized | Compound metabolized | Compound metabolized | Compound metabolized | Compound metabolized | Compound metabolized | Compound metabolized | Compound metabolized | Compound metabolized | Compound metabolized | Compound metabolized | Compound metabolized | Compound NOT metabolized | Compound metabolized
2 | CCCCCCOC(=O)/N=C(/N)c1ccc(NCc2nc3cc(C(=O)N(CCC(=O)OCC)c4ccccn4)ccc3n2C)cc1.CS(=O)(=O)O [DABIGATRAN ETEXILATE MESYLATE] | Compound NOT metabolized | – | Compound NOT metabolized | Compound NOT metabolized | Compound NOT metabolized | Compound NOT metabolized | Compound NOT metabolized | Compound NOT metabolized | Compound NOT metabolized | Compound NOT metabolized | Compound NOT metabolized | Compound NOT metabolized | Compound NOT metabolized | Compound NOT metabolized | Compound NOT metabolized | Compound NOT metabolized | Compound NOT metabolized | Compound NOT metabolized | Compound NOT metabolized | Compound NOT metabolized
3 | CC(CN(C)C)CN1c2ccccc2CCc2ccccc21.O=C(O)/C=C\C(=O)O (stereo not given) [TRIMIPRAMINE MALEATE] | Compound NOT metabolized | Compound NOT metabolized | Compound NOT metabolized | Compound NOT metabolized | Compound NOT metabolized | Compound NOT metabolized | Compound NOT metabolized | Compound NOT metabolized | – | Compound NOT metabolized | Compound NOT metabolized | Compound NOT metabolized | – | Compound NOT metabolized | Compound NOT metabolized | Compound NOT metabolized | Compound NOT metabolized | Compound NOT metabolized | Compound NOT metabolized | Compound NOT metabolized
4 | COc1ccc(C(CN(C)C)C2(O)CCCCC2)cc1 (stereo not given) [VENLAFAXINE] | – | Compound NOT metabolized | Compound NOT metabolized | Compound NOT metabolized | Compound NOT metabolized | Compound NOT metabolized | Compound NOT metabolized | Compound NOT metabolized | Compound NOT metabolized | Compound NOT metabolized | Compound NOT metabolized | Compound NOT metabolized | Compound NOT metabolized | Compound NOT metabolized | Compound NOT metabolized | Compound NOT metabolized | Compound NOT metabolized | Compound NOT metabolized | Compound NOT metabolized | Compound NOT metabolized

Now from value to compound, other results behind:

Row | Bacterial Biotransformation [7] | Bacterial Biotransformation [13] | Bacterial Biotransformation [20] | Structure (SMILES) | Bacterial Biotransformation [1] | Bacterial Biotransformation [2] | Bacterial Biotransformation [3] | Bacterial Biotransformation [4] | Bacterial Biotransformation [5] | Bacterial Biotransformation [6] | Bacterial Biotransformation [8] | Bacterial Biotransformation [9] | Bacterial Biotransformation [10] | Bacterial Biotransformation [11] | Bacterial Biotransformation [12] | Bacterial Biotransformation [14] | Bacterial Biotransformation [15] | Bacterial Biotransformation [16] | Bacterial Biotransformation [17] | Bacterial Biotransformation [18] | Bacterial Biotransformation [19]
5 | Compound NOT metabolized | Compound NOT metabolized | Compound NOT metabolized | O=C(NCc1ccccc1)OCCO [BURAMATE] | Compound NOT metabolized | Compound NOT metabolized | Compound NOT metabolized | Compound NOT metabolized | Compound NOT metabolized | Compound NOT metabolized | Compound NOT metabolized | Compound NOT metabolized | Compound NOT metabolized | Compound NOT metabolized | Compound NOT metabolized | Compound NOT metabolized | Compound NOT metabolized | Compound NOT metabolized | Compound NOT metabolized | Compound NOT metabolized | Compound NOT metabolized
6 | Compound NOT metabolized | Compound NOT metabolized | Compound NOT metabolized | Cc1nc(-c2ccc(OCC(C)C)c(C#N)c2)sc1C(=O)O [FEBUXOSTAT] | Compound metabolized | Compound NOT metabolized | Compound NOT metabolized | Compound NOT metabolized | Compound NOT metabolized | Compound NOT metabolized | Compound NOT metabolized | Compound NOT metabolized | Compound NOT metabolized | – | Compound NOT metabolized | Compound NOT metabolized | Compound NOT metabolized | Compound metabolized | Compound NOT metabolized | – | Compound NOT metabolized
7 | Compound NOT metabolized | Compound NOT metabolized | Compound NOT metabolized | CC(C)NCC(O)c1ccc(NS(C)(=O)=O)cc1 (stereo not given) [SOTALOL] | Compound metabolized | Compound NOT metabolized | Compound NOT metabolized | Compound metabolized | Compound NOT metabolized | Compound NOT metabolized | Compound metabolized | Compound NOT metabolized | Compound NOT metabolized | – | Compound NOT metabolized | Compound NOT metabolized | Compound NOT metabolized | Compound NOT metabolized | Compound NOT metabolized | Compound NOT metabolized | Compound NOT metabolized
8 | Compound metabolized | Compound NOT metabolized | Compound metabolized | C=CC[C@@H]1/C=C(\C)C[C@H](C)C[C@H](OC)[C@H]2O[C@@](O)(C(=O)C(=O)N3CCCC[C@H]3C(=O)O[C@H](/C(C)=C/[C@@H]3CC[C@@H](O)[C@H](OC)C3)[C@H](C)[C@@H](O)CC1=O)[C@H](C)C[C@@H]2OC.O [TACROLIMUS] | Compound metabolized | Compound metabolized | Compound NOT metabolized | Compound NOT metabolized | Compound metabolized | – | Compound NOT metabolized | Compound metabolized | Compound metabolized | Compound metabolized | Compound NOT metabolized | Compound metabolized | Compound metabolized | Compound metabolized | Compound metabolized | – | Compound NOT metabolized
